Assay results as given in ChEMBL document CHEMBL1154982, “Sesquiterpene lactones from Scorzonera austriaca” (J Nat Prod, 2010).
Active and inactive are the calls of the source. The calls are words filed in the database; no cut-off is given here.

How the values were obtained:
Type in all cases: functional, cell-based
HepG2 = assay: Cytotoxicity against human HepG2 cells by MTT assay
K562 [1] = assay: Cytotoxicity against human adriamycin resistant K562 cells by MTT assay
BGC-823 = assay: Cytotoxicity against human BGC823 cells by MTT assay
K562 [2] = assay: Cytotoxicity against human K562 cells by MTT assay

Structure (SMILES)	Activity (HepG2)	Activity (K562 [1])	Activity (BGC-823)	Activity (K562 [2])	IC50 (K562 [2]) [µM]
CC1=CC(=O)C2=C(COC(=O)CC(C)C)C[C@H](O)[C@@H]3[C@H](OC(=O)[C@H]3C)[C@@H]12	inactive	inactive	inactive	inactive	–
C=C1[C@@H]2[C@H]3OC(=O)[C@@H](CNCC4CCC(=O)O4)[C@@H]3CCC(=C)[C@@H]2C[C@@H]1O (stereo partly specified) [SCORZOAUSTRIACIN]	inactive	inactive	inactive	–	11.3
C=C1[C@@H]2[C@H]3OC(=O)[C@@H](CNCC4CCC(=O)O4)[C@@H]3CCC(=C)[C@@H]2C[C@@H]1O[C@@H]1O[C@H](CO)[C@@H](O)[C@H](O)[C@H]1O (stereo partly specified)	inactive	inactive	inactive	inactive	–
CC1=CC(=O)C2=C(COC(=O)CC(C)C)C[C@H](OS(=O)(=O)O)[C@@H]3[C@H](OC(=O)[C@H]3C)[C@@H]12	inactive	inactive	inactive	inactive	–
